Experimental data from patent US20090143418A1, “Compositions and Methods for Preventing and Treating Hair Growth Cycle-Related Conditions” (THE REGENTS OF THE UNIVERSITY OF MICHIGAN, priority 2007, published 2009).
“And” between values parts separate entries of the source, which are not always exact repeats. Equal entries are not always repeated.

How the values were obtained:
hirsutism = hirsutism patients; cited from earlier work
DCT-LacZ mice [1] = test: Hair cycle stage (anagen) in skin sections of irradiated, transplanted DCT-LacZ mice; format: in vivo, mouse; details: 2/18 rapamycin treated animals versus 56% (10/18) vehicle; P=0.0001
Description: (§1) DCT-LacZ Staining A 2×2 cm patch of skin was harvested with dissecting scissors from euthanized DCT-LacZ mice. The skin patch was washed in phosphate buffer (0.5M Na2HPO4, 0.5M NaH2PO4, 2 mM MgC12, 0.02% NP-40, 0.01% sodium deoxycolate), and then fixed on ice in 0.2% glutaraldehyde in phosphate buffer for 30 minutes. While being fixed, the skin samples were microwaved in fixation solution on ice for 20 seconds. After fixation, the samples were washed and the adipose layer was removed by dissection. After another washing, the skin samples were stained in 1 mg/ml X-gal in phosphate buffer for 2.5 hours. After staining, samples were washed and roughly 1 mm wide sections were made manually using a razor blade. Sections were mounted in 70% glycerol.
To better understand the effects of rapamycin on melanocyte progenitors, transplantation experiments in mice bearing a DCT-LacZ transgene, which is expressed by melanocyte progenitors in hair follicles, were conducted (see, e.g., Mackenzie, M. A., et al., Dev Biol 192, 99-107 (1997); Nishimura, E. K., et al., Nature 416, 854-60 (2002); each herein incorporated by reference in their entireties). This transgene expresses the bacterial LacZ gene under the control of the melanocyte specific promoter for the gene dopachrome tautomerase. […]

[2] = system: wild-type nonirradiated mice; test: Depilation-induced hair cycle, skin pigmentation onset; format: in vivo, mouse; details: 4 mg/kg starting the day after depilation
Description: (§2) Rapamycin: Rapamycin (LC Laboratories) was administered by intraperitoneal injection. Rapamycin was reconstituted in ethanol (10 mg/ml or 1 mg/ml) and diluted into a solution of 5% Tween-80 (Sigma) and 5% PEG-400 (Hampton Research). The final volume injected was […]. Dosing and administration regimes were as indicated in Example II.
Depilation: Mice were anesthetized by intraperitoneal injection of 80 mg/kg of ketamine and 4 mg/kg of […] dissolved in HBSS. Final injection volume was 200 μl. The dorsal hair of the mice was then shaved with conventional clippers, and a commercial depilatory cream (Veet®) was applied liberally to an area of approximately 1.5×1.5 cm. After 5 minutes, the cream was washed off the mouse using warm water, and the mouse was gently dried using paper towels.
In analyzing the frequency of hair follicles that contained X-gal+ melanocytes, it became apparent that the hair follicles of rapamycin treated animals were less frequently in mature stages of the hair cycle (see FIG. 4). […] As such, a region of the lower back of wild-type nonirradiated mice was shaved and depilated. Depilation induced a new hair growth cycle, thereby permitting to test if in this context rapamycin could prevent the onset of or lengthen the duration of the hair cycle. […]

DCT-LacZ mice [3] = test: DCT-LacZ (X-gal) staining of skin, hair follicles containing melanocyte progenitors; format: in vivo, mouse; details: for percentage of hair follicles containing DCT-LacZ+ cells, Average: 11.2 grays irradiation, rapamycin 4 mg/kg/day i.p.; for percentage of hair follicles containing DCT-LacZ+ cells, individual mouse: individual animals (Mouse 1-4), 4 mg/kg/day i.p., 4 mg/kg/day
Description: Mice: DCT-LacZ mice were backcrossed for 3 generations on a C57BL background.
Irradiation and Bone Marrow Transplant: Adult recipient mice were irradiated using a gamma cell irradiator. Mice received two doses of 560 rads each delivered 3 hours apart (FIGS. 1-4, FIG. 7, Table 1). Mice received 1,000,000 whole bone marrow cells isolated from a C57BL donor (FIGS. 1-4, FIG. 7, Table 1). Bone marrow cells were suspended in HBSS free with 2% Bovine Serum and injected via the retro orbital venous sinus. Where indicated, mice were sublethally irradiated with 650 rads and not subjected to bone marrow transplant (FIG. 6).
as §2, §1
To better understand the effects of rapamycin on melanocyte progenitors, transplantation experiments in mice bearing a DCT-LacZ transgene, which is expressed by melanocyte progenitors in hair follicles, were conducted (see, e.g., Mackenzie, M. A., et al., Dev Biol 192, 99-107 (1997); Nishimura, E. K., et al., Nature 416, 854-60 (2002); each herein incorporated by reference in their entireties). This transgene expresses the bacterial LacZ gene under the control of the melanocyte specific promoter for the gene dopachrome tautomerase. These mice were used as recipients in similar transplants where 1 million whole bone marrow cells were irradiated and transplanted. The mice were treated with 0.4 mg/kg of rapamycin every other day for the first two weeks and then with 4 mg/kg/day after that. These mice were sacrificed at regular intervals, and their skin harvested and stained with X-gal.
Animals were sacrificed at each time point and stained with X-gal. The percentage of hair follicles containing DCT-LacZ+ cells was quantified.

Row | Structure (SMILES) | side effects (hirsutism) | animals with hairs in anagen (DCT-LacZ mice [1]) [%] | days until pigmentation was visible in skin ([2]; n=5, vehicle 16.7 days, p=0.04) [days] | delay of change in skin color (progression through anagen) versus vehicle ([2]; on average) [days] | percentage of hair follicles containing DCT-LacZ+ cells, Average (DCT-LacZ mice [3]; Week 8) [%] | percentage of hair follicles containing DCT-LacZ+ cells, individual mouse (DCT-LacZ mice [3]; Week 8) | percentage of hair follicles containing DCT-LacZ+ cells, Average (DCT-LacZ mice [3]; Week 10) [%] | percentage of hair follicles containing DCT-LacZ+ cells, individual mouse (DCT-LacZ mice [3]; Week 10) | percentage of hair follicles containing DCT-LacZ+ cells, Average (DCT-LacZ mice [3]; Week 12) [%] | percentage of hair follicles containing DCT-LacZ+ cells, individual mouse (DCT-LacZ mice [3]; Week 12) | percentage of hair follicles containing DCT-LacZ+ cells, Average (DCT-LacZ mice [3]; Week 14) [%] | percentage of hair follicles containing DCT-LacZ+ cells, individual mouse (DCT-LacZ mice [3]; Week 14)
1 | NCCCC(N)(C(=O)O)C(F)F (stereo not drawn) [Eflornithine] | minor skin irritation, folliculitis, stinging, burning, tingling, acne, and/or rash |  |  |  |  |  |  |  |  |  |  | 
2 | CO[C@H]1C[C@@H]2CC[C@@H](C)[C@@](O)(O2)C(=O)C(=O)N2CCCC[C@H]2C(=O)O[C@H]([C@H](C)C[C@@H]2CC[C@@H](O)[C@H](OC)C2)CC(=O)[C@H](C)/C=C(\C)[C@@H](O)[C@@H](OC)C(=O)[C@H](C)C[C@H](C)/C=C/C=C/C=C/1C [Rapamycin] |  | 11 | 25.2 | 8 | 61.0 | 77.0% and 45.0% | 34.1 | 19.3% and 22.0% and 42.0% and 53.0% | 48.3 | 54.0% and 39.0% and 52.0% | 40.5 | 53.0% and 42.0% and 17.0% and 50.0%
